Earlier results on four compounds are cited in article PMC4494773, “Design, synthesis, antiviral and cytotoxic evaluation of novel acyclic phosphonate nucleotide analogues with a 5,6-dihydro-1H-[1,2,3]triazolo[4,5-d]pyridazine-4,7-dione system” (Monatshefte Fur Chemie, 2014).

In one series the test system is viral helicase from HCV. The arrangement: method as in PMID 11959550.
The test system of series [1] is viral helicase from West Nile Virus (WNV). Also on record: method as in PMID 11959550.
In a further series the test system is HIV-1. Also on record: method as in PMID 12901908.

Turning to `O=c1[nH][nH]c(=O)c2c1ncn2C1OC(CO)C(O)C1O` (stereo not drawn) [compound 5], the “antiviral activity by inhibition of a viral helicase” value (with viral helicase from HCV; in series [1]) was “exhibited antiviral activity by inhibition of a viral helicase” in each case.

Turning to `NC(=O)c1cn(C2CC(CCP(=O)(O)O)CC2O)nn1` (stereo not drawn) [compound 2], the “antiviral activity against HIV-1” value with HIV-1 is “displayed antiviral activity”.

As to `NC(=O)c1nnn(C2CC(CO)CC2O)c1N` (stereo not drawn) [compound 1], in the series on HIV-1, the “antiviral activity against HIV-1” value is “displayed antiviral activity”.

Turning to `COC1C(O)C(CO)OC1n1cnc2c(=O)[nH][nH]c(=O)c21` (stereo not drawn) [compound 6], the “antiviral activity by inhibition of a viral helicase” value (in the series with viral helicase from HCV; in series [1]) was “exhibited antiviral activity by inhibition of a viral helicase” in each case.
